Source: patent publication US20260265771A1, “METHODS OF INCREASING THE REGENERATION EFFICIENCY IN PLANTS” (Institute of Genetics and Developmental Biology Chinese …, priority 2022, published 2026)
Several values for one entry are separate records, joined by “and”; a condition that tells them apart may be missing. Identical values can stand only once. Entries after “also recorded” stand apart in the source; their conditions may differ.

Key:
recalcitrant soybean = test: Regeneration frequency / transformation efficiency of recalcitrant soybean; type: cell-based; details: 100 nM GmREF1 vs control in absence of GmREF1
Method: (a) photos of control recalcitrant soybean and PRR+RER overexpressing (OE) recalcitrant soybean grown in the presence of 50 nM gmREF1, 100 nM GmREF1 or a vehicle only control (mock). (b) relative regeneration frequency of control recalcitrant soybean and PRR+RER overexpressing (OE) recalcitrant soybean grown in the presence of 50 nM GmREF1, 100 nM GmREF1 or a absence of REF1 (mock).

soybean explants = test: Shoot regeneration of soybean explants; type: cell-based, Glycine max
Method: The relative regeneration capacity was represented by the relative frequency of explants with the regenerated shoots. Data are mean±SD of three independent experiments. Bars show mean±SD. ***P<0.001, **P<0.01, *P<0.05 (Student's t-test).
Soybean explants were cultured on medium containing indicated concentrations of REF1. Shoot regeneration was scored 21 days after incubation.

[1] = system: Williams 82 soybean cultivar; test: Transformation efficiency of soybean (reporter gene A); type: cell-based
Method: By “transformation efficiency” is meant the capacity of an organism to take up and incorporate exogenous DNA such as plasmids during transformation. Transformation efficiency is calculated by dividing the number of transformants by the total number of organisms subjected to the transformation process and multiplying this by 100 to obtain a percentage.
The soybean gene A was transformed into the Williams 82 soybean cultivar and treated with 100 nM GmREF1 or a control. Gene A is a transcription factor gene which is used as a reporter for transformation efficiency. […]

cucumber leaf explants = test: Shoot regeneration of cucumber leaf explants; type: cell-based; details: 10 nM CsREF1 vs untreated control explants, 21 d
Method: FIG. 46—Leaf explants were cultured on medium containing indicated concentrations of CsREF1. Shoot regeneration was scored at 21 d after incubation. The shoot regenerative capacity was represented by the number of regenerated shoots per explant. Data are mean±SD of three independent experiments. Bars show mean±SD. ***P<0.001, **P<0.01, *P<0.05 (Student's t-test).
Leaf explants were cultured on a medium containing 10 nM CsREF1.

[2] = 100 nM GmREF1, three experiments

Sequence	regeneration frequency, increase (recalcitrant soybean)	relative regeneration frequency, increase (soybean explants; 10 nM GmREF1 vs absence)	relative regeneration frequency, increase (soybean explants; 20 nM GmREF1 vs absence)	relative regeneration frequency, increase (soybean explants; 50 nM GmREF1 vs absence)	shoot regeneration / regenerative capacity (soybean explants; presence vs absence of GmREF1)	Regenerated shoots carrying the reporter gene [1, 2]	Transformation efficiency (%) [1, 2]	transformation efficiency ([1]; 100 nM GmREF1 vs control)	shoot regenerative capacity (cucumber leaf explants)
GSVVVLQTKRKHDGGKGRDPQTN (Glycine max) [GmREF1]	~ 12 fold	~ 2.1 fold	~ 2.8 fold	~ 3.8 fold	increases the regenerative capacity; also recorded: promotes shoot regeneration	177 and 156 and 200	64.1% and 73.9% and 72.9%	improves transformation efficiency; also recorded: greater	–
YKLEGELQKRFEDLLKTTTDNDIPRGGNY (listed as Cucumis sativus) [CsREF1]	–	–	–	–	–	–	–	–	significantly increased
